Target: Lysine-specific histone demethylase 1A (Homo sapiens, UniProt O60341)
Experiment: In Vitro Enzyme Inhibition Assay - LSD-1

IC50: < 0.1 µM
Structure (SMILES): CN(C)C1CCN(c2nc(-c3ccc(C#N)c(F)c3)c(C3=CC4C=NN(C)C4C=C3)c(=O)n2C)CC1 (stereo unspecified) [US10548896, Example 72]

Source: BindingDB's records for patent US10548896 (Celgene Quanticel Research, 2020)
